Laboratory results: the NIST ThermoML archive (doi:10.1016/j.jct.2014.04.016)
Several values for one entry are separate records, joined by “and”; a condition that tells them apart may be missing. Identical values can stand only once. ± gives the expanded uncertainty stated by the source.

Test: xn = mol fraction of the nth substance listed
Conditions: 100 kPa; for electrical conductivity: Alternating current cell with electrodes; for mass density: Vibrating tube method; for viscosity: Concentric cylinders viscometry

For `CCCCCCCCOS(=O)(=O)[O-].CCn1cc[n+](C)c1` [1-ethyl-3-methylimidazolium octyl sulfate] + O, the electrical conductivity (251.8 K, Glass, x1 = 0.5001) was 0.013 ± 0.003 S/m, the electrical conductivity (251.9 K, Glass, x1 = 0.5001) was 0.014 ± 0.003 S/m and the electrical conductivity (254.1 K, Glass, x1 = 0.5001) was 0.016 S/m and 0.017 S/m. It also gave an electrical conductivity (255.1 K, Glass, x1 = 0.5001) of 0.018 ± 0.003 S/m, an electrical conductivity (256.1 K, Glass, x1 = 0.5001) of 0.02 ± 0.003 S/m and an electrical conductivity (257.1 K, Glass, x1 = 0.4688) of 0.023 ± 0.003 S/m. For the same molecule, the electrical conductivity (257.1 K, Glass, x1 = 0.5001) was 0.022 ± 0.003 S/m, the electrical conductivity (258.1 K, Glass, x1 = 0.5001) was 0.023 ± 0.003 S/m and the electrical conductivity (259.1 K, Glass, x1 = 0.4688) was 0.028 ± 0.003 S/m. For the same molecule, the electrical conductivity (259.1 K, Liquid, x1 = 0.5001) was 0.025 ± 0.003 S/m, the electrical conductivity (261.1 K, Glass, x1 = 0.4688) was 0.032 S/m and 0.031 S/m and the electrical conductivity (261.1 K, Liquid, x1 = 0.0803) was 0.56 ± 0.012 S/m. The electrical conductivity (261.1 K, Liquid, x1 = 0.5001) was 0.029 ± 0.003 S/m, the electrical conductivity (263.1 K, Glass, x1 = 0.2119) was 0.228 ± 0.005 S/m and the electrical conductivity (263.1 K, Glass, x1 = 0.4688) was 0.036 S/m and 0.038 S/m. The electrical conductivity (263.1 K, Liquid, x1 = 0.0586) was 0.703 ± 0.016 S/m, the electrical conductivity (263.1 K, Liquid, x1 = 0.0803) was 0.611 ± 0.013 S/m and the electrical conductivity (263.1 K, Liquid, x1 = 0.5001) was 0.034 ± 0.003 S/m. The electrical conductivity (264.1 K, Glass, x1 = 0.1197) was 0.479 ± 0.011 S/m, the electrical conductivity (265.1 K, Liquid, x1 = 0.0803) was 0.667 S/m and 0.622 S/m and the electrical conductivity (266.1 K, Glass, x1 = 0.4688) was 0.045 ± 0.003 S/m. It also gave an electrical conductivity (266.1 K, Liquid, x1 = 0.0803) of 0.688 ± 0.015 S/m, an electrical conductivity (267.1 K, Glass, x1 = 0.4688) of 0.049 ± 0.003 S/m and an electrical conductivity (268.1 K, Glass, x1 = 0.1197) of 0.566 ± 0.012 S/m. It also gave an electrical conductivity (268.1 K, Glass, x1 = 0.2119) of 0.29 ± 0.007 S/m, an electrical conductivity (268.1 K, Glass, x1 = 0.4108) of 0.085 ± 0.003 S/m and an electrical conductivity (268.1 K, Glass, x1 = 0.4688) of 0.051 ± 0.003 S/m. The electrical conductivity (268.1 K, Liquid, x1 = 0.0401) was 0.898 ± 0.019 S/m, the electrical conductivity (268.1 K, Liquid, x1 = 0.0586) was 0.867 ± 0.02 S/m and the electrical conductivity (268.1 K, Liquid, x1 = 0.0803) was 0.755 S/m and 0.753 S/m. The electrical conductivity (268.1 K, Liquid, x1 = 0.4688) was 0.052 ± 0.003 S/m, the electrical conductivity (268.1 K, Liquid, x1 = 0.5001) was 0.048 ± 0.003 S/m and the electrical conductivity (269.1 K, Glass, x1 = 0.1197) was 0.591 S/m and 0.59 S/m. The electrical conductivity (269.1 K, Liquid, x1 = 0.0586) was 0.897 ± 0.019 S/m, the electrical conductivity (269.1 K, Liquid, x1 = 0.4688) was 0.054 ± 0.003 S/m and the mass density (269.1 K, Liquid, x1 = 0.1197) was 1084.1 ± 1 kg/m3. The viscosity (269.6 K, Glass, x1 = 0.4108) was 16300 ± 7600 mPa·s, the mass density (269.6 K, Liquid, x1 = 0.4108) was 1107.2 ± 1 kg/m3 and the electrical conductivity (270.1 K, Glass, x1 = 0.1197) was 0.617 S/m and 0.616 S/m. The viscosity (270.1 K, Glass, x1 = 0.1197) was 19170 mPa·s, the viscosity (270.1 K, Glass, x1 = 0.4108) was 5510 ± 1500 mPa·s and the electrical conductivity (270.1 K, Liquid, x1 = 0.0401) was 0.968 ± 0.02 S/m. The electrical conductivity (270.1 K, Liquid, x1 = 0.4688) was 0.059 S/m and 0.058 S/m, the mass density (270.1 K, Liquid, x1 = 0.1197) was 1083.7 ± 1 kg/m3 and the mass density (270.1 K, Liquid, x1 = 0.4108) was 1107 ± 1 kg/m3. The viscosity (270.6 K, Glass, x1 = 0.4108) was 2431 ± 460 mPa·s, the mass density (270.6 K, Liquid, x1 = 0.4108) was 1106.7 ± 1 kg/m3 and the electrical conductivity (271.1 K, Glass, x1 = 0.1197) was 0.641 S/m and 0.639 S/m. For the same molecule, the electrical conductivity (271.1 K, Glass, x1 = 0.4108) was 0.1 ± 0.003 S/m, the viscosity (271.1 K, Glass, x1 = 0.1197) was 16390 ± 7600 mPa·s and the viscosity (271.1 K, Glass, x1 = 0.4108) was 1385 ± 210 mPa·s. It also gave an electrical conductivity (271.1 K, Liquid, x1 = 0.0803) of 0.862 ± 0.019 S/m, a mass density (271.1 K, Liquid, x1 = 0.1197) of 1083.1 ± 1 kg/m3 and a mass density (271.1 K, Liquid, x1 = 0.4108) of 1106.4 ± 1 kg/m3. It also gave a viscosity (271.6 K, Glass, x1 = 0.4108) of 889.3 ± 110 mPa·s, a mass density (271.6 K, Liquid, x1 = 0.4108) of 1106.1 ± 1 kg/m3 and an electrical conductivity (272.1 K, Glass, x1 = 0.1197) of 0.667 ± 0.014 S/m. It also gave an electrical conductivity (272.1 K, Glass, x1 = 0.4108) of 0.104 ± 0.003 S/m, a viscosity (272.1 K, Glass, x1 = 0.1197) of 11470 ± 4400 mPa·s and an electrical conductivity (272.1 K, Liquid, x1 = 0.0401) of 1.03 ± 0.022 S/m. The electrical conductivity (272.1 K, Liquid, x1 = 0.1197) was 0.666 ± 0.015 S/m, the viscosity (272.1 K, Liquid, x1 = 0.4108) was 609.1 ± 67 mPa·s and the mass density (272.1 K, Liquid, x1 = 0.1197) was 1082.6 ± 1 kg/m3. The mass density (272.1 K, Liquid, x1 = 0.4108) was 1105.7 ± 1 kg/m3, the electrical conductivity (273.1 K, Glass, x1 = 0.1402) was 0.597 ± 0.013 S/m and the electrical conductivity (273.1 K, Glass, x1 = 0.2119) was 0.371 S/m and 0.368 S/m. The electrical conductivity (273.1 K, Glass, x1 = 0.3076) was 0.203 ± 0.005 S/m, the electrical conductivity (273.1 K, Glass, x1 = 0.3555) was 0.147 ± 0.003 S/m and the electrical conductivity (273.1 K, Glass, x1 = 0.4108) was 0.111 ± 0.004 S/m. For the same molecule, the viscosity (273.1 K, Glass, x1 = 0.1197) was 9033 ± 3100 mPa·s, the electrical conductivity (273.1 K, Liquid, x1 = 0.0401) was 1.07 S/m and the electrical conductivity (273.1 K, Liquid, x1 = 0.0586) was 1.04 S/m. For the same molecule, the electrical conductivity (273.1 K, Liquid, x1 = 0.0803) was 0.921 ± 0.02 S/m, the electrical conductivity (273.1 K, Liquid, x1 = 0.1197) was 0.695 ± 0.015 S/m and the electrical conductivity (273.1 K, Liquid, x1 = 0.4688) was 0.073 S/m and 0.07 S/m. For the same molecule, the electrical conductivity (273.1 K, Liquid, x1 = 0.5001) was 0.066 ± 0.003 S/m, the viscosity (273.1 K, Liquid, x1 = 0.4108) was 564.7 ± 60 mPa·s and the mass density (273.1 K, Liquid, x1 = 0.1197) was 1082 ± 1 kg/m3. The mass density (273.1 K, Liquid, x1 = 0.4108) was 1105 ± 1 kg/m3, the viscosity (274.1 K, Glass, x1 = 0.1197) was 6783 ± 2000 mPa·s and the electrical conductivity (274.1 K, Liquid, x1 = 0.1197) was 0.723 ± 0.016 S/m. For the same molecule, the electrical conductivity (274.1 K, Liquid, x1 = 0.4108) was 0.117 ± 0.003 S/m, the viscosity (274.1 K, Liquid, x1 = 0.4108) was 524.2 ± 54 mPa·s and the mass density (274.1 K, Liquid, x1 = 0.1197) was 1081.5 ± 1.1 kg/m3. For the same molecule, the mass density (274.1 K, Liquid, x1 = 0.4108) was 1104.3 ± 1 kg/m3, the viscosity (275.1 K, Glass, x1 = 0.1197) was 4354 ± 1000 mPa·s and the electrical conductivity (275.1 K, Liquid, x1 = 0.1197) was 0.75 ± 0.016 S/m. For the same molecule, the electrical conductivity (275.1 K, Liquid, x1 = 0.4108) was 0.123 ± 0.004 S/m, the viscosity (275.1 K, Liquid, x1 = 0.4108) was 487.1 ± 49 mPa·s and the mass density (275.1 K, Liquid, x1 = 0.1197) was 1080.9 ± 1 kg/m3. For the same molecule, the mass density (275.1 K, Liquid, x1 = 0.4108) was 1103.6 ± 1 kg/m3, the electrical conductivity (276.1 K, Glass, x1 = 0.3555) was 0.169 ± 0.004 S/m and the viscosity (276.1 K, Glass, x1 = 0.1197) was 2361 ± 430 mPa·s. It also gave an electrical conductivity (276.1 K, Liquid, x1 = 0.0803) of 1.02 ± 0.021 S/m, an electrical conductivity (276.1 K, Liquid, x1 = 0.4688) of 0.086 ± 0.003 S/m and a mass density (276.1 K, Liquid, x1 = 0.1197) of 1080.3 ± 1 kg/m3. The electrical conductivity (277.1 K, Glass, x1 = 0.3555) was 0.181 ± 0.004 S/m, the viscosity (277.1 K, Glass, x1 = 0.1197) was 1248 ± 170 mPa·s and the electrical conductivity (277.1 K, Liquid, x1 = 0.1197) was 0.807 S/m and 0.806 S/m. For the same molecule, the mass density (277.1 K, Liquid, x1 = 0.1197) was 1079.7 ± 1 kg/m3, the viscosity (277.6 K, Glass, x1 = 0.3555) was 5137 ± 1300 mPa·s and the mass density (277.6 K, Liquid, x1 = 0.3555) was 1100 ± 1 kg/m3. For the same molecule, the viscosity (277.9 K, Glass, x1 = 0.3555) was 2995 ± 600 mPa·s and 2875 ± 560 mPa·s, the mass density (277.9 K, Liquid, x1 = 0.3555) was 1099.9 ± 1 kg/m3 and the electrical conductivity (278.1 K, Glass, x1 = 0.1402) was 0.731 S/m and 0.732 S/m. The electrical conductivity (278.1 K, Glass, x1 = 0.1605) was 0.677 ± 0.015 S/m, the electrical conductivity (278.1 K, Glass, x1 = 0.2119) was 0.46 ± 0.01 S/m and the electrical conductivity (278.1 K, Glass, x1 = 0.3076) was 0.259 S/m and 0.258 S/m.
